This note sets out measurements from PubChem BioAssay (NCI).

What all share (assay): NCI anticancer screen, dose series, 48 h
Test [1] deals with MALME-3M melanoma.
The subject of test [2] is M14 melanoma.
Test [3] deals with NCI-H460 lung.
For test [4], the system named is OVCAR-3 ovarian.
In test [5] the test system is UACC-62 melanoma.
Test [6] relates to MOLT-4 leukemia.
Test [7] relates to NCI-H522 lung.
Test [8] has as its system NCI-H23 lung.
Test [9] relates to HCC-2998 colon.
Test [10] has as its system SF-539 CNS.
Test [11] has as its system HCT-116 colon.
In test [12] the test system is SNB-19 CNS.
Test [13] deals with SR leukemia.
In test [14] the test system is OVCAR-5 ovarian.
The subject of test [15] is CAKI-1 renal.
The subject of test [16] is PC-3 prostate.
The subject of test [17] is MDA-MB-231 breast.
Test [18] relates to T-47D breast.
The test system of test [19] is MCF7 breast.
Test [20] has as its system MDA-N.

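Each compound was tested at five concentrations against cells in 96-well plates for 48 hours. TGI marks complete inhibition of growth.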

On to `CC1(C)CC(=O)C2=C(C1)S/C(=C1/SC3=C(S1)C(=O)CC(C)(C)C3)S2`, for which the TGI in test [1], in [2], in test [3], in test [4], in test [5] and in test [6] was above 251 µM in each case. The TGI in [7], in test [8], in test [9], in [10], in test [11] and in test [12] was above 251 µM throughout. The TGI in [13] is above 251 µM.

In the case of `CC(C)OC(=O)C1=C(O)c2ccccc2S(=O)(=O)N1`, the TGI in test [1], in test [14], in test [2], in test [3], in test [4] and in test [15] was above 100 µM in each case. Moreover, the TGI in test [5], in test [6], in test [7], in [8], in test [9] and in test [10] was above 100 µM throughout. Moreover, the TGI in test [11] and in test [12] was above 100 µM in each case.

Regarding `O=c1ssc(Cl)c1Nc1c(Cl)ssc1=O`, the TGI in test [1] was found to be 37.7 µM; in test [14] it was 37.3 µM; in [2], 39.8 µM; in [16] it was 37.9 µM; in [3], 34.6 µM; in [4], 39.4 µM. Also, the TGI in [17] is 41.1 µM; in [15], 32 µM; in [5], above 55 µM; in [6], 7.29 µM; in [18], 29.8 µM; in [7], 60.5 µM. The TGI in [8] is 38.8 µM; in test [9], 41.3 µM; in test [10], 59.3 µM; in test [19], above 63 µM; in test [11], 33.9 µM; in test [12], 69.1 µM. The compound also had a TGI in test [13] of 15 µM.

In the case of `CCOC(=O)C1=C(C)OC(=O)[C@@]2(OC)C=C(Cl)[C@@]12C`, the TGI in [20], in [1], in test [14], in test [2], in [16] and in test [3] was above 100 µM throughout. The TGI in test [4], in [17], in [15], in test [5], in test [6] and in test [7] was above 100 µM throughout. In addition, the TGI in test [8], in test [9], in test [10], in test [19], in test [11] and in test [12] was above 100 µM each time. For the same compound, in [13], the TGI was above 100 µM.

Turning to `Cc1ccc(S(=O)(=O)N/N=c2\c(C)c(C3=NS(=O)(=O)c4cc(S(N)(=O)=O)c(Cl)cc4N3)oc3c(Cl)cc(Cl)cc23)cc1`, the TGI in test [1], in test [14], in test [2], in test [3], in test [4] and in test [15] was above 100 µM each time. Further, the TGI in test [5], in test [6], in test [8], in [9], in [10] and in test [11] was above 100 µM in each case. Moreover, the TGI in [12] and in [13] was above 100 µM throughout.

Regarding `Cc1ccc(C[P+]2(c3ccccc3)CCCCC2)cc1`, the TGI in test [1] is above 100 µM; in test [14], above 100 µM; in [2], above 100 µM; in test [3] it was above 100 µM; in test [5] it was 66.2 µM; in test [6] it was above 100 µM. The TGI in [7] is above 100 µM; in [8], above 100 µM; in test [9] it was 60.8 µM; in [10], above 100 µM; in [11] it was above 100 µM; in test [12], above 100 µM. In test [13], this compound displayed a TGI of 90.9 µM.

Turning to `Cc1cccc(/C=C2\CCCc3ccccc3C2=O)c1`, the TGI is 55 µM in [20]; 35.3 µM in test [1]; 31.6 µM in test [14]; 34.6 µM in test [2]; above 100 µM in test [16]; 36.5 µM in test [3]. The TGI was 78.7 µM in test [4]; 48 µM in test [17]; above 100 µM in test [15]; 27.5 µM in [5]; 68.6 µM in test [6]; 33.1 µM in test [7]. Besides, the TGI in test [8] is 79.8 µM; in test [10], 34.4 µM; in test [19], 56.2 µM; in test [11] it was 31.2 µM; in [12], 90.3 µM; in [13] it was 40.3 µM.

Take `COc1cc(-c2cc(=O)c3c(O)c(OC)c(OC)c(OC)c3o2)ccc1O`: the TGI in test [1] was above 100 µM; in [14], above 100 µM; in test [2], 81.7 µM; in [3] it was 69.2 µM; in test [4], above 100 µM; in test [5], 34.4 µM. The TGI was 93.5 µM in test [6]; 44.7 µM in [7]; above 100 µM in test [8]; above 100 µM in [9]; 35.9 µM in test [10]; above 100 µM in test [11]. Further, the TGI in test [12] and in [13] was above 100 µM throughout.

As to `O=c1[nH]c(=O)n(C2OC(CO)C(O)C2O)c2ccsc12` (centres undefined), the TGI in [20], in test [1], in test [14], in test [2], in test [16] and in [3] was above 100 µM in each case. Besides, the TGI in [4], in test [17], in [15], in test [6], in [7] and in [8] was above 100 µM each time. Moreover, the TGI in test [9], in test [10], in test [19], in test [11] and in test [13] was above 100 µM throughout.

As for `O=C(c1ccc2ccccc2c1)N(Cc1cccnc1)C(=S)N(Cc1cccnc1)C(=O)c1ccc2ccccc2c1`, the TGI is above 100 µM in [1]; above 100 µM in test [14]; 55 µM in [2]; above 100 µM in test [16]; 95.7 µM in test [3]; 42.7 µM in test [4]. For the same compound, the TGI in test [17] is 44.1 µM; in [15], 44 µM; in [5], above 100 µM; in [6], above 100 µM; in test [18], 65.8 µM; in test [7] it was above 100 µM. The TGI is 63.7 µM in test [8]; 32 µM in test [9]; above 100 µM in [10]; above 100 µM in test [19]; above 100 µM in test [11]; above 100 µM in test [12]. The compound also showed a TGI in [13] above 100 µM.

For `CCOC(=O)N(c1ccccc1)c1cc(=O)n2ccccc2n1`, the TGI in test [1], in test [14], in test [3], in test [4], in [17] and in test [15] was above 100 µM each time. For the same compound, the TGI in [5], in [6], in [18], in [8], in test [9] and in test [10] was above 100 µM in each case. Besides, the TGI in test [19], in test [11], in test [12] and in test [13] was above 100 µM in each case.

Take `CC(Oc1ccc(OCC2CCCCC2)cc1)C(N)=O` (centres undefined): the TGI in [1], in test [2], in test [3], in test [4], in [5] and in test [6] was above 100 µM in each case. Further, the TGI in test [7], in test [8], in test [10] and in test [11] was above 100 µM in each case.

`O=C(O)c1ccc(-c2nc3ccc(Cl)cc3[nH]2)cc1`: the TGI in test [2], in [16], in test [4], in test [17], in test [15] and in test [6] was above 100 µM each time. The TGI in [18], in [7], in test [9], in [10], in [19] and in test [12] was above 100 µM each time. The TGI in test [13] was above 100 µM.

Consider `O=C(O)c1cc2cc(c1)N=Cc1ccccc1OCc1cccc(n1)COc1ccccc1C=N2`, for which the TGI in [20] is 9.82 µM; in test [1] it was 22.4 µM; in [14], above 25 µM; in test [2] it was above 25 µM; in [16], above 25 µM; in [3], above 25 µM. Further, the TGI in test [4] was 13.2 µM; in test [17], above 25 µM; in test [5] it was above 25 µM; in test [6] it was above 25 µM; in [7], above 25 µM; in test [8], above 25 µM. The TGI in test [10], in test [19], in test [11], in [12] and in [13] was above 25 µM throughout.

Turning to `Nc1ccc(N=Nc2ccc(-c3ccc(O)cc3)cc2)c2ccc(S(=O)(=O)O)cc12`, the TGI in test [1], in test [14], in [2], in [16], in test [3] and in test [4] was above 100 µM throughout. In addition, the TGI in [17], in test [15], in test [5], in test [6], in test [18] and in test [7] was above 100 µM in each case. The TGI in test [8], in [10], in test [19], in test [11], in test [12] and in test [13] was above 100 µM each time.

For `C=CCC(CC=O)(C(=O)OCC)C(=O)OCC`, the TGI in test [20], in test [1], in test [14], in [2], in test [16] and in [3] was above 100 µM in each case. Also, the TGI in test [4], in test [17], in test [15], in test [5], in [6] and in [7] was above 100 µM each time. Also, the TGI in test [8], in test [10], in [19], in test [11], in [12] and in test [13] was above 100 µM in each case.

As for `NCCCCN(CCCN)C(=O)c1ccccc1`, the TGI in [14], in test [2], in test [16], in [3], in test [4] and in [17] was above 100 µM each time. The TGI in test [15], in test [5], in test [6], in [18], in test [7] and in test [8] was above 100 µM each time. In addition, the TGI in test [9], in test [10], in [19], in [11] and in test [12] was above 100 µM each time.
